ChEMBL document CHEMBL1151757, “Synthesis, radiosynthesis, and biological evaluation of fluorine-18-labeled 2beta-carbo(fluoroalkoxy)-3beta-(3'-((Z)-2-haloethenyl)phenyl)nortropanes: candidate radioligands for in vivo imaging of the serotonin transporter with positron emission tomography” (J Med Chem, 2008)

Assays:
[1] = Ratio of drug uptake in pons to cerebellum in anesthetized cynomolgus monkey after 85 mins postinjection; format: ADME, organism-based, Macaca fascicularis; settings: in vivo
[2] = Ratio of drug uptake in pons to cerebellum in anesthetized cynomolgus monkey after 105 mins postinjection; format: ADME, organism-based, Macaca fascicularis; settings: in vivo, 1.75 h
[3] = Ratio of drug uptake in medulla to cerebellum in anesthetized cynomolgus monkey after 65 mins postinjection; format: ADME, organism-based, Macaca fascicularis; settings: in vivo
[4] = Ratio of drug uptake in medulla to cerebellum in anesthetized cynomolgus monkey after 135 mins postinjection; format: ADME, organism-based, Macaca fascicularis; settings: in vivo, 2.25 h
[5] = Drug uptake in anesthetized cynomolgus monkey brain occipital lobe after 9.5 mins postinjection; format: ADME, organism-based, Macaca fascicularis; settings: in vivo
[6] = Drug uptake in anesthetized cynomolgus monkey brain occipital lobe after 105 mins postinjection; format: ADME, organism-based, Macaca fascicularis; settings: in vivo, 1.75 h
[7] = Drug uptake in anesthetized cynomolgus monkey brain occipital lobe after 125 mins postinjection; format: ADME, organism-based, Macaca fascicularis; settings: in vivo
[8] = Drug uptake in anesthetized cynomolgus monkey brain frontal lobe after 4.5 mins postinjection; format: ADME, organism-based, Macaca fascicularis; settings: in vivo, 0.075 h
[9] = Drug uptake in anesthetized cynomolgus monkey brain frontal lobe after 6.5 mins postinjection; format: ADME, organism-based, Macaca fascicularis; settings: in vivo
[10] = Drug uptake in anesthetized cynomolgus monkey brain frontal lobe after 9.5 mins postinjection; format: ADME, organism-based, Macaca fascicularis; settings: in vivo
[11] = Drug uptake in anesthetized cynomolgus monkey brain frontal lobe after 15.5 mins postinjection; format: ADME, organism-based, Macaca fascicularis; settings: in vivo
[12] = Drug uptake in anesthetized cynomolgus monkey brain frontal lobe after 22.5 mins postinjection; format: ADME, organism-based, Macaca fascicularis; settings: in vivo, 0.375 h
[13] = Drug uptake in anesthetized cynomolgus monkey brain frontal lobe after 27.5 mins postinjection; format: ADME, organism-based, Macaca fascicularis; settings: in vivo
[14] = Drug uptake in anesthetized cynomolgus monkey brain frontal lobe after 35 mins postinjection; format: ADME, organism-based, Macaca fascicularis; settings: in vivo
[15] = Drug uptake in anesthetized cynomolgus monkey brain frontal lobe after 85 mins postinjection; format: ADME, organism-based, Macaca fascicularis; settings: in vivo
[16] = Drug uptake in anesthetized cynomolgus monkey brain frontal lobe after 215 mins postinjection; format: ADME, organism-based, Macaca fascicularis; settings: in vivo
[17] = Drug uptake in anesthetized cynomolgus monkey brain frontal lobe after 225 mins postinjection; format: ADME, organism-based, Macaca fascicularis; settings: in vivo, 3.75 h
Putamen [18] = assay: Drug uptake in anesthetized cynomolgus monkey brain putamen after 175 mins postinjection; format: ADME, organism-based, Macaca fascicularis; settings: in vivo
Thalamus [19] = assay: Drug uptake in anesthetized cynomolgus monkey brain thalamus after 0.5 mins postinjection; format: ADME, organism-based, Macaca fascicularis; settings: in vivo
[20] = Ratio of drug uptake in frontal lobe to cerebellum in anesthetized cynomolgus monkey after 35 mins postinjection; format: ADME, organism-based, Macaca fascicularis; settings: in vivo
Pons [21] = assay: Drug uptake in anesthetized cynomolgus monkey brain pons after 0.5 mins postinjection; format: ADME, organism-based, Macaca fascicularis; settings: in vivo
Pons [22] = assay: Drug uptake in anesthetized cynomolgus monkey brain pons after 27.5 mins postinjection; format: ADME, organism-based, Macaca fascicularis; settings: in vivo
Pons [23] = assay: Drug uptake in anesthetized cynomolgus monkey brain pons after 105 mins postinjection; format: ADME, organism-based, Macaca fascicularis; settings: in vivo, 1.75 h
[24] = Ratio of drug uptake in caudate to cerebellum in anesthetized cynomolgus monkey after 55 mins postinjection; format: ADME, organism-based, Macaca fascicularis; settings: in vivo
[25] = Ratio of drug uptake in caudate to cerebellum in anesthetized cynomolgus monkey after 155 mins postinjection; format: ADME, organism-based, Macaca fascicularis; settings: in vivo
Pons [26] = assay: Drug uptake in anesthetized cynomolgus monkey brain pons after 175 mins postinjection; format: ADME, organism-based, Macaca fascicularis; settings: in vivo
Medulla [27] = assay: Drug uptake in anesthetized cynomolgus monkey brain medulla after 4.5 mins postinjection; format: ADME, organism-based, Macaca fascicularis; settings: in vivo, 0.075 h
Medulla [28] = assay: Drug uptake in anesthetized cynomolgus monkey brain medulla after 15.5 mins postinjection; format: ADME, organism-based, Macaca fascicularis; settings: in vivo
Medulla [29] = assay: Drug uptake in anesthetized cynomolgus monkey brain medulla after 45 mins postinjection; format: ADME, organism-based, Macaca fascicularis; settings: in vivo, 0.75 h
[30] = Ratio of drug uptake in caudate to cerebellum in anesthetized cynomolgus monkey after 225 mins postinjection; format: ADME, organism-based, Macaca fascicularis; settings: in vivo, 3.75 h
Medulla [31] = assay: Drug uptake in anesthetized cynomolgus monkey brain medulla after 145 mins postinjection; format: ADME, organism-based, Macaca fascicularis; settings: in vivo
Medulla [32] = assay: Drug uptake in anesthetized cynomolgus monkey brain medulla after 155 mins postinjection; format: ADME, organism-based, Macaca fascicularis; settings: in vivo
[33] = Octanol-water partition coefficient, log P at pH 7.4 by shake-flask method; format: physicochemical
[34] = Ratio of drug uptake in putamen to cerebellum in anesthetized cynomolgus monkey after 155 mins postinjection; format: ADME, organism-based, Macaca fascicularis; settings: in vivo
[35] = Drug uptake in anesthetized cynomolgus monkey brain cerebellum after 4.5 mins postinjection; format: ADME, organism-based, Macaca fascicularis; settings: in vivo, 0.075 h
[36] = Drug uptake in anesthetized cynomolgus monkey brain cerebellum after 15.5 mins postinjection; format: ADME, organism-based, Macaca fascicularis; settings: in vivo
[37] = Drug uptake in anesthetized cynomolgus monkey brain cerebellum after 22.5 mins postinjection; format: ADME, organism-based, Macaca fascicularis; settings: in vivo, 0.375 h
[38] = Drug uptake in anesthetized cynomolgus monkey brain cerebellum after 27.5 mins postinjection; format: ADME, organism-based, Macaca fascicularis; settings: in vivo
[39] = Ratio of drug uptake in thalamus to cerebellum in anesthetized cynomolgus monkey after 135 mins postinjection; format: ADME, organism-based, Macaca fascicularis; settings: in vivo, 2.25 h
Caudate [40] = assay: Drug uptake in anesthetized cynomolgus monkey brain caudate after 6.5 mins postinjection; format: ADME, organism-based, Macaca fascicularis, Caudate nucleus; settings: in vivo
Caudate [41] = assay: Drug uptake in anesthetized cynomolgus monkey brain caudate after 9.5 mins postinjection; format: ADME, organism-based, Macaca fascicularis, Caudate nucleus; settings: in vivo
Caudate [42] = assay: Drug uptake in anesthetized cynomolgus monkey brain caudate after 27.5 mins postinjection; format: ADME, organism-based, Macaca fascicularis, Caudate nucleus; settings: in vivo
Caudate [43] = assay: Drug uptake in anesthetized cynomolgus monkey brain caudate after 105 mins postinjection; format: ADME, organism-based, Macaca fascicularis, Caudate nucleus; settings: in vivo, 1.75 h
Caudate [44] = assay: Drug uptake in anesthetized cynomolgus monkey brain caudate after 135 mins postinjection; format: ADME, organism-based, Macaca fascicularis, Caudate nucleus; settings: in vivo, 2.25 h
Caudate [45] = assay: Drug uptake in anesthetized cynomolgus monkey brain caudate after 155 mins postinjection; format: ADME, organism-based, Macaca fascicularis, Caudate nucleus; settings: in vivo
[46] = Ratio of drug uptake in occipital lobe to cerebellum in anesthetized cynomolgus monkey after 0.5 mins postinjection; format: ADME, organism-based, Macaca fascicularis; settings: in vivo
Thalamus [47] = assay: Drug uptake in anesthetized cynomolgus monkey brain thalamus after 12.5 mins postinjection; format: ADME, organism-based, Macaca fascicularis; parameters: unit not given here; settings: in vivo
Thalamus [48] = assay: Drug uptake in anesthetized cynomolgus monkey brain thalamus after 18.5 mins postinjection; format: ADME, organism-based, Macaca fascicularis; parameters: unit not given here; settings: in vivo
Thalamus [49] = assay: Drug uptake in anesthetized cynomolgus monkey brain thalamus after 35 mins postinjection; format: ADME, organism-based, Macaca fascicularis; parameters: unit not given here; settings: in vivo
Putamen [50] = assay: Drug uptake in anesthetized cynomolgus monkey brain putamen after 15.5 mins postinjection; format: ADME, organism-based, Macaca fascicularis; parameters: unit not given here; settings: in vivo
Putamen [51] = assay: Drug uptake in anesthetized cynomolgus monkey brain putamen after 18.5 mins postinjection; format: ADME, organism-based, Macaca fascicularis; parameters: unit not given here; settings: in vivo
Putamen [52] = assay: Drug uptake in anesthetized cynomolgus monkey brain putamen after 95 mins postinjection; format: ADME, organism-based, Macaca fascicularis; parameters: unit not given here; settings: in vivo
Putamen [53] = assay: Drug uptake in anesthetized cynomolgus monkey brain putamen after 105 mins postinjection; format: ADME, organism-based, Macaca fascicularis; parameters: unit not given here; settings: in vivo, 1.75 h
Thalamus [54] = assay: Drug uptake in anesthetized cynomolgus monkey brain thalamus after 65 mins postinjection; format: ADME, organism-based, Macaca fascicularis; parameters: unit not given here; settings: in vivo
Thalamus [55] = assay: Drug uptake in anesthetized cynomolgus monkey brain thalamus after 75 mins postinjection; format: ADME, organism-based, Macaca fascicularis; parameters: unit not given here; settings: in vivo, 1.25 h
Midbrain [56] = assay: Drug uptake in anesthetized cynomolgus monkey brain midbrain after 0.5 mins postinjection; format: ADME, organism-based, Macaca fascicularis; parameters: unit not given here; settings: in vivo
Midbrain [57] = assay: Drug uptake in anesthetized cynomolgus monkey brain midbrain after 12.5 mins postinjection; format: ADME, organism-based, Macaca fascicularis; parameters: unit not given here; settings: in vivo
Midbrain [58] = assay: Drug uptake in anesthetized cynomolgus monkey brain midbrain after 35 mins postinjection; format: ADME, organism-based, Macaca fascicularis; parameters: unit not given here; settings: in vivo
Midbrain [59] = assay: Drug uptake in anesthetized cynomolgus monkey brain midbrain after 85 mins postinjection; format: ADME, organism-based, Macaca fascicularis; parameters: unit not given here; settings: in vivo
Midbrain [60] = assay: Drug uptake in anesthetized cynomolgus monkey brain midbrain after 95 mins postinjection; format: ADME, organism-based, Macaca fascicularis; parameters: unit not given here; settings: in vivo

SMILES: O=C(OCCC[18F])C1C2CCC(CC1c1cccc(/C=C\Br)c1)N2 (stereo not given)
- Ratio [1]: 1.2
- Ratio [2]: 1.3
- Ratio [3]: 1.3
- Ratio [4]: 1.7
- Drug uptake [5]: 3.77
- Drug uptake [6]: 3.91
- Drug uptake [7]: 3.64
- Drug uptake [8]: 1.85
- Drug uptake [9]: 2.95
- Drug uptake [10]: 3.19
- Drug uptake [11]: 3.38
- Drug uptake [12]: 3.74
- Drug uptake [13]: 3.8
- Drug uptake [14]: 3.74
- Drug uptake [15]: 3.32
- Drug uptake [16]: 2.03
- Drug uptake [17]: 1.97
- Drug uptake (Putamen [18]): 4.1
- Drug uptake (Thalamus [19]): 0.01
- Ratio [20]: 0.7
- Drug uptake (Pons [21]): 0.01
- Drug uptake (Pons [22]): 5.03
- Drug uptake (Pons [23]): 4.38
- Ratio [24]: 1.1
- Ratio [25]: 1.6
- Drug uptake (Pons [26]): 3.78
- Drug uptake (Medulla [27]): 3.95
- Drug uptake (Medulla [28]): 5.77
- Drug uptake (Medulla [29]): 5.8
- Ratio [30]: 1.7
- Drug uptake (Medulla [31]): 4.91
- Drug uptake (Medulla [32]): 4.48
- logD [33]: 1.87
- Ratio [34]: 1.7
- Drug uptake [35]: 3.51
- Drug uptake [36]: 5.62
- Drug uptake [37]: 5.9
- Drug uptake [38]: 5.61
- Ratio [39]: 1.6
- Drug uptake (Caudate [40]): 3.14
- Drug uptake (Caudate [41]): 3.93
- Drug uptake (Caudate [42]): 4.94
- Drug uptake (Caudate [43]): 4.9
- Drug uptake (Caudate [44]): 4.43
- Drug uptake (Caudate [45]): 4.18
- Ratio [46]: 1
- Drug uptake (Thalamus [47]): 4.31
- Drug uptake (Thalamus [48]): 4.77
- Drug uptake (Thalamus [49]): 5.26
- Drug uptake (Putamen [50]): 5.53
- Drug uptake (Putamen [51]): 5.83
- Drug uptake (Putamen [52]): 5.28
- Drug uptake (Putamen [53]): 5.21
- Drug uptake (Thalamus [54]): 5.39
- Drug uptake (Thalamus [55]): 5.33
- Drug uptake (Midbrain [56]): 0.01
- Drug uptake (Midbrain [57]): 5.24
- Drug uptake (Midbrain [58]): 6.14
- Drug uptake (Midbrain [59]): 5.86
- Drug uptake (Midbrain [60]): 5.79
